Source: patent US20130225522A1, “COMPOSITION FOR RELIEVING STIMULUS OF SKIN CAUSED BY DYE” (Amorepacific Corporation, priority 2009, published 2013)

Test system: mouse ear
Experiment: mouse ear swelling test (MEST)
Type: in vivo
Details: BALB/c mouse
Experimental: To evaluate an effect of relieving skin irritation caused by a dye and for preventing or inhibiting inflammation caused by a dye, the mouse ear swelling test (MEST) using a mouse is carried out in the manner as described below.
A 7 weeks-aged mouse subject (BALC/c) is obtained and subjected to quarantine and adaptation for a period of 10 days. Then, the mouse is dehaired at its abdominal portion, and a main ingredient of dye, i.e. 3% paraphenylene diamine (PPD) is applied thereto in combination with a monosaccharide (glucose, galactose or fructose) or disaccharide (maltose, lactose or sucrose) for 7 days three times a day. As a control, each of dimethyl sulfoxide (DMSO) solvent and 3% PPD is applied. Twenty-four hours after the final application, the mouse ear is weighed. After weighing, the mouse ear is fixed in formalin and subjected to hematoxylin & eosin (H&E) staining for a histopathological test. Then, the thickness of the mouse ear is determined. Herein, the weight of the mouse ear is measured by biopsy of the ear of the mouse subject (Balb/c), to which each test sample is applied, using a 6 mm punch. The thickness of the mouse ear is determined by measuring the thickness of the ear of the mouse subject (Balb/c) stained after weighing the mouse ear weight by using a microscope.

Q: How did the Ear thickness (3% PPD alone or in combination with saccharide applied for 7 days three times a day, formalin-fixed, H&E stained ear measured by microscope) turn out when Nc1ccc(N)cc1 [PPD (3%), paraphenylene diamine] was run?
A: 433.28 ± 11.57 μm

Q: What about the Ear weight (3% PPD alone or in combination with saccharide applied to dehaired abdominal portion for 7 days three times a day, ear weighed 24 h after final application, 6 mm punch biopsy) of the same molecule?
A: 14.74 ± 0.23 mg
